Experimental data: patent US4071528A, “Certain thiazolidine and tetrahydrothiazine compounds” (May & Baker Limited, priority 1975, dated 1978)
Read-outs that look alike come from different tables or passages of the source.

How the values were obtained:
[1] = system: Nippostrongylus brasiliensis; test: Activity against roundworms in rats, A.1: treatment 6 days after infection (patent infection), post-mortem worm counts; type: in vivo; details: 48 h, oral, 100 mg/kg, treated 6 days after infection, read-out: % Reduction of mean worm load
Method: In the Tables of results "s.c." means subcutaneous and the doses are expressed in mg/kg animal body weight. […] A.1. Rats were infected with 100 Nippostrongylus brasiliensis larvae each, by the subcutaneous route. After 6 days, when the infection was patent, the rats were randomised and allotted to groups of 5 animals each, ready for treatment. One group was used for each dose level of the test compound, which was administered by the oral or subcutaneous route, and in each experiment, one group of 10 animals was left untreated as a control. All the rats were killed for post-mortem worm counts 48 hours after treatment. The activities, expressed in terms of the percentage reduction in mean worm load of the treated groups compared with the untreated group, are shown in Table I.

[2] = system: Nippostrongylus brasiliensis; test: Activity against roundworms in rats, A.2: treatment 24 hours after infection, post-mortem worm counts; type: in vivo; details: 144 h, treated 24 hours after infection, read-out: % Reduction of mean worm load
Method: In the Tables of results "s.c." means subcutaneous and the doses are expressed in mg/kg animal body weight. […] A.2. Rats were infected with 100 Nippostrongylus brasiliensis larvae each, by the subcutaneous route. After 24 hours the rats were randomised and allotted to groups of 5 animals each, ready for treatment. Doses of the test compound were then administered to each group by the oral or subcutaneous route, one group of 10 animals being left untreated as a control. All the rats were killed for post-mortem worm counts 6 days after dosing. The activities, expressed in terms of the percentage reduction in mean worm load of the treated groups compared with the untreated control group, are given below in Table II.

Haemonchus contortus [3] = test: B.1 Activity against adult Haemonchus contortus in lambs; type: in vivo; details: s.c. 10 mg/kg (methanesulphonate salt), adult stage
Method: (§1) B.1. Activity against Haemonchus contortus and Nematodirus spathiger in their adult stages in lambs.
(§2) Worm-free, 8-10 week old lambs were each infected with 5000 H. contortus and 15000 N. spathiger larvae. Approximately 3 weeks later, doses of test compound A were administered to each group of 2 animals, by the subcutaneous route, one group of 2 animals being left untreated as a control.
(§3) Individual faecal H. contortus egg counts were determined 1 day before and 5- 7 days after treatment, when all the lambs were killed for post-mortem worm counts. The activities, expressed in terms of the percentage reduction in mean worm burden of each worm species compared with the untreated control group, are given below.

Nematodirus spathiger [4] = test: B.1 Activity against adult Nematodirus spathiger in lambs; type: in vivo; details: s.c. 10 mg/kg (methanesulphonate salt), adult stage
Method: as §1, §2, §3

Haemonchus contortus [5] = test: B.2 Activity against Haemonchus contortus in 4th larval and adult stages in lambs; type: in vivo; details: oral 4 mg/kg
Method: (§4) B.2. Activity against Haemonchus contortus, Ostertagia circumcincta, Trichostrongylus axei, Trichostrongylus colubriformis and Nematodirus spathiger in their 4th larval and adult stages in lambs.
(§5) Worm-free, 8-10 week old lambs were each infected with 5,000 H. contortus, 15,000 O. circumcincta, 20,000 T. axei, 15,000 T. colubriformis and 15,000 N. spathiger larvae.
(§6) Doses of test compound A of 4 mg/kg animal body weight were then administered to each group of 2 animals, by the oral route, after 7 days or 25 days to examine the effects against the 4th larval stage and mature adult worms respectively, one group of 2 animals being left untreated as a control. All the lambs were killed for post-mortem worm wounts 28 days after infection. The activities, expressed in terms of the percentage reduction in mean worm burden of each worm species compared with the untreated control group, are given below in Table III.

Ostertagia circumcincta = test: B.2 Activity against Ostertagia circumcincta in 4th larval and adult stages in lambs; type: in vivo; details: oral 4 mg/kg
Method: as §4, §5, §6

Trichostrongylus axei = test: B.2 Activity against Trichostrongylus axei in 4th larval and adult stages in lambs; type: in vivo; details: oral 4 mg/kg
Method: as §4, §5, §6

[6] = system: Trichostrongylus colubriformis; test: B.2 Activity against Trichostrongylus colubriformis in 4th larval and adult stages in lambs; type: in vivo; details: oral 4 mg/kg
Method: as §4, §5, §6

Nematodirus spathiger [7] = test: B.2 Activity against Nematodirus spathiger in 4th larval and adult stages in lambs; type: in vivo; details: oral 4 mg/kg
Method: as §4, §5, §6

Cooperia oncophora = test: C.2 Activity against Cooperia oncophora in mature and immature stages in calves; type: in vivo; details: s.c. 25 mg/kg (methanesulphonate salt)
Method: (§7) C.2. Activity against Cooperia oncophora, Ostertagia ostertagi, and Dictyocaulus viviparus in their mature and immature stages in calves. Worm free, 6-7 week old calves were each infected with 15,000 C. oncophora, 15,000 O. ostertagi and 3,000 D. viviparus larvae. Groups of two animals each were treated subcutaneously with test compound A at a dose of 25 mg/kg animal body weight at 7 days or 25 days after infection, one group of two animals being left untreated as a control. All calves were killed approximately 28 days after infection and were examined for residual worm burdens. The percentage reduction in mean worm burden of each worm species compared with the untreated control group is given below in Table V.

Ostertagia ostertagi = test: C.2 Activity against Ostertagia ostertagi in mature and immature stages in calves; type: in vivo; details: s.c. 25 mg/kg (methanesulphonate salt)
Method: as §7

Dictyocaulus viviparus = test: C.2 Activity against Dictyocaulus viviparus in mature and immature stages in calves; type: in vivo; details: s.c. 25 mg/kg (methanesulphonate salt)
Method: as §7

Fasciola hepatica = test: D. Activity against mature and immature liver flukes in sheep; type: in vivo; details: oral 25 mg/kg in gelatin capsules
Method: D. Activity against mature and immature liver flukes in sheep On the first day of the experiment a group of sheep were each infected with 300 metacercariae of liver fluke Fasciola hepatica and on the 56th day they were each infected with a further 300 metacercariae of F. hepatica. On day 70 of the experiment, doses of the test compounds of 25 mg/kg animal body weight were administered orally in gelatin capsules to groups of two animals per compound. One group of two animals was left untreated as controls. On day 98 of the experiment, all the sheep were killed. The number of mature flukes present in the bile ducts and the numbers of immature flukes present in the rest of the liver were counted. The activities, expressed in terms of the percentage reduction in mean fluke burdens compared with the untreated controls, are shown below in Table VI.

[8] = Oral acute toxicity (LD50) in mice; details: mouse, in vivo, observed during next 6 days
From the text: Mice were each treated orally with one of the compounds of formula I, and they were observed during the next 6 days. The LD50 figures obtained (doses lethal to 50% of mice tested) are shown in Table VII, expressed in mg/kg animal body weight.

Mycosphaerella pinodes = test: Minimum effective concentration totally inhibiting fungal growth, Mycosphaerella pinodes, potato dextrose agar tubes; type: cell-based; details: Didymella pinodes, 48 h; total inhibition of fungal growth; tested at 50, 10 or 2 ppm; 25° C, 2 days
Method: Test tubes containing 4.0 ml of molten potato dextrose agar at about 50° C were inoculated with 0.5 ml of suspension of test compound and 0.5 ml of fungal suspension delivered from a sterile syringe to give a final concentration of each compound of 50, 10 or 2 ppm. Two replicate tubes were inoculated with each fungal species. After the addition of test compounds and fungal inoculum to the molten medium the tubes were sloped and the agar was allowed to set. The tubes were incubated at 25° C for either 2 days (Mycosphaerella pinodes) or 3 days (Helminthosporium avenae). […] The suspensions of test compounds were prepared by grinding 0.025 g of test compound with sterile distilled water containing 0.1 ml of 0.1% Texofor FX170 wetting agent, followed by dilution to the concentration desired. The inoculum of Mycosphaerella pinodes was prepared as follows: A one to two week old culture on Coon's agar on plates was scraped off with a glass rod and sterile distilled water and filtered through muslin. The filtrate, containing the spores, was used for inoculation.

[9] = sc, s.c. (methanesulphonate salt, aqueous)
[10] = treated at 7 days (4th larval stage)
[11] = treated at 25 days (mature adult worms)
[12] = treated 25 days after infection

COC(=O)N=C1SCC(=O)N1c1ccc(Sc2ccccc2)cc1NC(=O)CN(C)C [Compound A, 3-[2-(2-dimethylaminoacetamido)-4-phenylthiophenyl]-2-methoxycarbonyliminothiazolidin-4-one]
inhibition in vivo at 100 mg/kg [1]: 99%
inhibition in vivo at 12.5 mg/kg ([2]; oral): 85%
inhibition in vivo at 50 mg/kg ([2]; oral): 99%
inhibition in vivo at 12.5 mg/kg [2, 9]: 91%
inhibition in vivo at 50 mg/kg [2, 9]: 99%
reduction of the mean worm burden of H. contortus (Haemonchus contortus [3]): 100%
reduction of the mean worm burden of N. spathiger (Nematodirus spathiger [4]): 99%
Percentage reduction in mean worm burdens, H. contortus (Haemonchus contortus [5]; [10]): 100%
Percentage reduction in mean worm burdens, H. contortus (Haemonchus contortus [5]; [11]): 100%
Percentage reduction in mean worm burdens, O. circumcincta (Ostertagia circumcincta; [10]): 99%
Percentage reduction in mean worm burdens, O. circumcincta (Ostertagia circumcincta; [11]): 100%
Percentage reduction in mean worm burdens, T. axei (Trichostrongylus axei; [10]): 100%
Percentage reduction in mean worm burdens, T. axei (Trichostrongylus axei; [11]): 100%
Percentage reduction in mean worm burdens, T. colubriformis [6, 10]: 100%
Percentage reduction in mean worm burdens, T. colubriformis [6, 11]: 100%
Percentage reduction in mean worm burdens, N. spathiger (Nematodirus spathiger [7]; [10]): 95%
Percentage reduction in mean worm burdens, N. spathiger (Nematodirus spathiger [7]; [11]): 97%
% Reduction of mean worm burdens, C. oncophora (Cooperia oncophora; treated 7 days after infection): 100%
% Reduction of mean worm burdens, C. oncophora (Cooperia oncophora; [12]): 100%
% Reduction of mean worm burdens, O. ostertagi (Ostertagia ostertagi; treated 7 days after infection): 97%
% Reduction of mean worm burdens, O. ostertagi (Ostertagia ostertagi; [12]): 100%
% Reduction of mean worm burdens, D. viviparus (Dictyocaulus viviparus; treated 7 days after infection): 83%
% Reduction of mean worm burdens, D. viviparus (Dictyocaulus viviparus; [12]): 82%
Mean % Reduction, Immature flukes (Fasciola hepatica; immature flukes in rest of liver): 29%
Mean % Reduction, Mature flukes (Fasciola hepatica; mature flukes in bile ducts): 93%
LD50 at 144 h [8]: ~1000 mg/kg
MIC (Mycosphaerella pinodes): < 2 µg/mL
